Experiments:
[1] = molecular target: T1, human lysosomal β-galactosidase (β-Gal) (Homo sapiens, UniProt P16278); test: β-Gal inhibition in human leukocyte homogenates; type: biochemical; settings: compounds 1 mM; human leukocytes extracts
T1 construct: in leukocytes isolated from healthy donors (controls); endogenous in cells; host or cells: human leukocytes from healthy donors, disrupted by sonication (crude homogenate)
T1 sequence (P16278 29-677): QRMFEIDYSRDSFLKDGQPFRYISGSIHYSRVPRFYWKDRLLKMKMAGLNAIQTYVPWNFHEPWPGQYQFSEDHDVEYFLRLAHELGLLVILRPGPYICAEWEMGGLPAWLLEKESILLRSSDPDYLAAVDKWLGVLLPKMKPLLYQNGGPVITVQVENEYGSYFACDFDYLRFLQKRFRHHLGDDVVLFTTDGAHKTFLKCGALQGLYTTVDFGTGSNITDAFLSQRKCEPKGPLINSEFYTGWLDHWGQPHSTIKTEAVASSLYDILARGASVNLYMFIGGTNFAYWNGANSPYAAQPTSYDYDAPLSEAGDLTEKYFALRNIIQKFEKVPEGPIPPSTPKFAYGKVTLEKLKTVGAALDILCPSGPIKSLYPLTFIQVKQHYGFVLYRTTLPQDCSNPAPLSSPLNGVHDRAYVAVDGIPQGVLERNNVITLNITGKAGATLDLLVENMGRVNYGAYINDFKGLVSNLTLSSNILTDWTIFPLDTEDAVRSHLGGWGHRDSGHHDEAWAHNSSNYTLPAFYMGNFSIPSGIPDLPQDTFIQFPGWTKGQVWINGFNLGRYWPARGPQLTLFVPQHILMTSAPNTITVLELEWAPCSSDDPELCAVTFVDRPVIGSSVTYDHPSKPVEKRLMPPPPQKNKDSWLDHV
Experimental: (§1) The new compounds were screened at 1 mM concentration towards β-galactosidase (β-Gal) and β-glucosidase (GCase) in leukocytes isolated from healthy donors (controls). Isolated leukocytes were disrupted by sonication, and a Micro BCA Protein Assay Kit (Sigma–Aldrich, St. Louis, MO, USA) was used to determine the total protein amount for the enzymatic assay, according to the manufacturer’s instructions.
β-Gal activity was measured in a flat-bottomed 96-well plate. Azasugar solution (3 μL), 4.29 μg/μL leukocytes homogenate 1:10 (7 μL), and substrate 4-methylumbelliferyl β-D-galactopyranoside (1.47 mM, 20 μL, Sigma–Aldrich) in acetate buffer (0.1 M, pH 4.3) containing NaCl (0.1 M) and sodium azide (0.02%) were incubated at 37 °C for 1 h. The reaction was stopped by addition of sodium carbonate (200 μL; 0.5 M, pH 10.7) containing Triton X-100 (0.0025%), and the fluorescence 4-methylumbelliferone released by β-galactosidase activity was measured in SpectraMax M2 Microplate Reader (λex = 365 nm and λem = 435 nm; Molecular Devices LLC, San Jose, CA, US). Inhibition is given with respect to the control (without azasugar). Data are mean SD (n = 3).

[2] = molecular target: T2, human lysosomal β-glucosidase (GCase) (Homo sapiens, UniProt P04062); test: GCase inhibition in human leukocyte homogenates; type: biochemical; settings: human leukocytes extracts; for inhibition at 1000 µM / GCase Inhibition (%): compounds 1 mM; for IC50: 4-methylumbelliferyl-β-D-glucoside 3.33 mM
T2 construct: in leukocytes isolated from healthy donors (controls); endogenous in cells; host or cells: human leukocytes from healthy donors, disrupted by sonication (crude homogenate)
T2 sequence (P04062 40-536): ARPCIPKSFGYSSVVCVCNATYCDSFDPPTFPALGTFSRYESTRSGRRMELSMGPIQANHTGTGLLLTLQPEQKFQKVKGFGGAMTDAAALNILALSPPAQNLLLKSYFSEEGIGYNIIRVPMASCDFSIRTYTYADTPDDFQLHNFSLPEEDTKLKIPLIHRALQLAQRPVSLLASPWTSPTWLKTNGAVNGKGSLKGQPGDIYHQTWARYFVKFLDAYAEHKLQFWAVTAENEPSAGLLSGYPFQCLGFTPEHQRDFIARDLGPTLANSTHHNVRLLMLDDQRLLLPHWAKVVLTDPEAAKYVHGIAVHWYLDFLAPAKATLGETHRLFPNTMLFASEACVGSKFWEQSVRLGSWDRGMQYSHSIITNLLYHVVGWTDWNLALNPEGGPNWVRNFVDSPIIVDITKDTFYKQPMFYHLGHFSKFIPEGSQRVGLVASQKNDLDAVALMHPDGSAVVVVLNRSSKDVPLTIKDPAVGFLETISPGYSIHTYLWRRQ
Experimental: as §1
GCase activity was measured in a flat-bottomed 96-well plate. Compound solution (3 µL), 4.29 µg/µL leukocytes homogenate (7 µL), and substrate 4-methylumbelliferyl-β-D-glucoside (3.33 mM, 20 µL, Sigma–Aldrich Chemie Gmbh, Munich, Germany)) in citrate/phosphate buffer (0.1:0.2, M/M, pH 5.8) containing sodium taurocholate (0.3%) and Triton X-100 (0.15%) at 37 °C were incubated for 1 h. The reaction was stopped by addition of sodium carbonate (200 µL; 0.5 M, pH 10.7) containing Triton X-100 (0.0025%), and the fluorescence of 4-methylumbelliferone released by β-glucosidase activity was measured in SpectraMax M2 Microplate Reader (λex = 365 nm and λem = 435 nm; Molecular Devices LLC, San Jose, CA, US). Percentage GCase inhibition is given with respect to the control (without compound). Data are mean SD (n = 3). For compounds showing GCase inhibitory activity higher than 80% at 1 mM concentration, the IC50 values were determined by measuring the initial hydrolysis rate with 4-methylumbelliferyl-β-D-glucoside (3.33 mM). Data obtained were fitted by using the appropriate equation (for more details, see the Supplementary Materials).
IC50 for compounds 9, 10, 12 and 21 towards human lysosomal β-glucosidase The IC50 values of inhibitors against β-glucosidase were determined by measuring the initial hydrolysis rate with 4-methylumbelliferyl-β-D-glucoside (3.33 mM). Data obtained were fitted to the following equation using the Origin Microcal program. where Vi/Vo, represent the ratio between the activity measured in the presence of the inhibitor (Vi) and the activity of the control without the inhibitor (V0), “x” the inhibitor concentration, Max and Min, the maximal and minimal enzymatic activity observed, respectively.
Figure S48: IC of compound 9 towards GCase
Figure S49: IC50 of compound 10 towards GCase
(also on this page, place not known: Min x MinMax Vo Vi slope + […] […] […] […] […] […]+ −= 1 be tween (V i) (V 0), IC50) […]

With `CCCCCCCCCO[C@H]1CNC[C@@H](O)[C@H]1O` [compound 9, (3S, 4R, 5R)-4,5-Dihydroxy-3-(Nonyloxy) Piperidine] the inhibition at 1000 µM [1] was 22%, the inhibition at 1000 µM [2] was over 90% and the “GCase Inhibition (%)” value ([2]; listed as C00009) was 98%. It also gave an IC50 [2] of 12 ± 6 µM.
In the case of `CCCCCCCCCCCCN[C@H]1CNC[C@@H](O)[C@H]1O` [compound 10, (3R, 4S, 5S)-3,4-Dihydroxy-5-(Dodecylamino) Piperidine], the inhibition at 1000 µM [1] is reported as 0%, the inhibition at 1000 µM [2] is reported as over 90% and the “GCase Inhibition (%)” value ([2]; listed as C00010) is reported as 100%. The IC50 [2] was 6.4 ± 0.7 µM.
With `CCCCCCCC[C@]1(O)CNC[C@@H](O)[C@H]1O` [compound 12, (3S, 4R, 5R)-3,4,5-Trihydroxy-3-Octyl-Piperidine] the inhibition at 1000 µM [1] was 0%, the inhibition at 1000 µM [2] was over 90% and the “GCase Inhibition (%)” value ([2]; listed as C00012) was 93%. The IC50 [2] was 60 ± 23 µM.
With `CCCCCCCCCO[C@@H]1CNC[C@@H](O)[C@H]1O` [compound 21, (3R, 4R, 5R)-4,5-Dihydroxy-3-(Nonyloxy) Piperidine] the inhibition at 1000 µM [1] was 0%, the inhibition at 1000 µM [2] was over 90% and the “GCase Inhibition (%)” value ([2]; listed as C00016) was 100%. It also gave an IC50 [2] of 130 ± 13 µM.
